Values of other authors in patent US20200397744A1, “COMPOSITIONS COMPRISING CO-CRYSTALS OF STILBENOIDS AND CANNABINOIDS” (priority 2018, published 2020).

Assays:
cancer cell lines = cancer cell lines in vitro
[1] = in vivo

CN(C)C(=N)N=C(N)N [metformin]
decrease of plasma glucose levels (hyperglycemic rats): 48%

COc1cc(/C=C/c2ccc(O)cc2)cc(OC)c1 [pterostilbene, trans-3,5-dimethoxy-4′-hydroxystilbene]
cytotoxic activity (cancer cell lines): cytotoxic activity | bioavailability [1]: poor bioavailability
